According to patent US20240245660A1, “METHODS OF TREATING GASTROINTESTINAL STROMAL TUMORS” (Deciphera Pharmaceuticals, LLC, priority 2022, published 2024):

How the values were obtained:
[1] = test system: GISTs with KIT exon 11 primary mutations; settings: cited from earlier work
[2] = test system: advanced gastrointestinal stromal tumor (GIST); assay: Multicenter, global, randomized, open-label, phase 3 study of ripretinib versus sunitinib with baseline ctDNA analysis (Examples 1 and 5); format: in vivo, human; settings: for forest plot of PFS by KIT exon 11 mutational subgroups from baseline ctDNA: FIG. 10; for forest plot of OS by KIT exon 11 mutational subgroups from baseline ctDNA / forest plot of OS by KIT mutational status from baseline ctDNA: Interim Analysis 2; for forest plot of OS by KIT exon 11 mutational subgroups from baseline ctDNA: FIG. 14; for forest plot of ORR by KIT exon 11 mutational subgroups from baseline ctDNA: FIG. 12; for forest plot of OS by KIT mutational status from baseline ctDNA: FIG. 13; for median PFS by IRR: KIT mutations at exon 17/18, excluding KIT exons 9, 13, and/or 14, FIG. 4; for forest plot of PFS by KIT mutational status from baseline ctDNA: FIG. 9; for Median Progression-Free Survival (mPFS): patients with mutations in KIT exon 11 and 17 or 18 only (ctDNA; excluding exons 9, 13, 14), by IRR, ripretinib 150 mg QD or sunitinib 50 mg QD; for forest plot of ORR by KIT mutational status from baseline ctDNA: FIG. 11; for OS HR, ripretinib versus sunitinib (Cox model) / PFS HR, ripretinib versus sunitinib (Cox model): sex, and race
Procedure: This study is a multicenter, global, randomized, open-label, phase 3 study which enrolled adult patients with advanced gastrointestinal stromal tumor (GIST) who progressed on or had intolerance to imatinib. Randomization was 1:1 to ripretinib 150 mg once daily (QD) or sunitinib 50 mg once daily (QD) (4 weeks on/2 weeks off). Baseline peripheral whole blood was analyzed by Guardant360, a 74-gene circulating tumor DNA (ctDNA) next-generation sequencing (NGS)-based assay.
Of the 453 patients in the overall intent-to-treat population (ITT), baseline ctDNA analysis was performed in 362 patients for whom evaluable samples were available. ctDNA was detected in 280 samples and KIT mutations were detected in 213 patients. Primary mutations in KIT were detected in exon 11 in 157 patients and in exon 9 in 36 patients. Common resistance mutations in KIT were in exons 17/18 in 89 patients and exons 13/14 in 81 patients. In patients with a KIT exon 11 primary mutation, 52 patients had mutations in exon 17 or 18 only, 41 had mutations in exon 13 or 14 only, and 22 patients had mutations in both exon 13 or 14 and exon 17 or 18. […] Efficacy in patients with detectable ctDNA in KIT exon 11 and the ITT populations was consistent with the primary analysis based on tumor data used for randomization. The subgroup safety profiles were consistent with the primary analysis.
Cox proportional hazards analyses of PFS and OS were conducted to examine the interaction of treatment arm and mutational subgroup with or without adjustment for baseline characteristics in the study of Example 1.
(§1) With respect to PFS, a Cox model with the interaction effect was used and the Bonferroni adjustment was applied. […] The treatment effect was nominally significant in the KIT exon 11+13/14 and KIT exon 11+17/18 populations before and after performing the Bonferroni correction. […] The results were robust when accounting for multiple treatment comparisons across mutational subgroups.
as §1, with “OS,” for “PFS,”, “exon” for “exon 11+13/14 and KIT exon”, “population” for “populations”, “correction, but not in the KIT exon 11+13/14 population.” for “correction.”

[3] = test system: gastrointestinal stromal tumors (GIST); assay: Bridging study of second-line ripretinib versus sunitinib in GIST patients in China (Example 3); format: in vivo, human; settings: patients in China with KIT exon 11 and exon 17/18 mutations per tumor tissue ITT population; ripretinib 150 mg once daily or sunitinib 50 mg once daily; FIG. 16
Procedure: Results from a bridging study, with respect to the study of Example 1 above, of second-line administration of 150 mg once daily ripretinib, as compared to administration of 50 mg once daily sunitinib, in gastrointestinal stromal tumors (GIST) patients in China were obtained. In the study, 21 patients were determined to have mutations at KIT exon 11 and exon 17/18 per the tumor tissue ITT population. Progression-free survival (PFS) was determined with independent radiologic review using mRECIST. A Kaplan-Meier plot of PFS is provided as FIG. 16.

[4] = KIT exon 11 and 17 or 18 only (ctDNA), Data cut 1
[5] = KIT exon 11 and 17 or 18 only (ctDNA), Data cut 2
[6] = KIT exon 11 and exon 17/18, excluding exons 9, 13, and/or 14, extended interim analysis (Interim Analysis 2), FIG. 6
[7] = KIT exon 11 and exon 17/18, excluding exons 9, 13, and/or 14, interim analysis (Interim Analysis 1), FIG. 5
[8] = KIT exon 17/18, excluding exons 9, 13, and/or 14, extended interim analysis (Interim Analysis 2), FIG. 8
[9] = KIT exon 17/18, excluding exons 9, 13, and/or 14, interim analysis (Interim Analysis 1), FIG. 7
[10] = with adjustment for age, Any KIT exon 9 (n = 36)
[11] = with adjustment for age, KIT exon 11 + 13/14 + 17/18 only (n = 22)
[12] = with adjustment for age, KIT exon 11 + 13/14 only (n = 41)
[13] = with adjustment for age, KIT exon 11 + 17/18 only (n = 52)
[14] = with adjustment for age, KIT exon 11 only (n = 41)
[15] = with adjustment for age, Other KIT/PDGFRA (n = 29)
[16] = without adjustment for age, Any KIT exon 9 (n = 36)
[17] = without adjustment for age, KIT exon 11 + 13/14 + 17/18 only (n = 22)
[18] = without adjustment for age, KIT exon 11 + 13/14 only (n = 41)
[19] = without adjustment for age, KIT exon 11 + 17/18 only (n = 52)
[20] = without adjustment for age, KIT exon 11 only (n = 41)
[21] = without adjustment for age, Other KIT/PDGFRA (n = 29)

Cc1ccc(NC(=O)c2ccc(CN3CCN(C)CC3)cc2)cc1Nc1nccc(-c2cccnc2)n1 [imatinib]
2-year relapse-free survival ([1]; adjuvant setting): ~90% | median event-free survival ([1]; metastatic setting): under 2 years

CCn1c(=O)c(-c2cc(NC(=O)Nc3ccccc3)c(F)cc2Br)cc2cnc(NC)cc21 [ripretinib]
forest plot of PFS by KIT exon 11 mutational subgroups from baseline ctDNA ([2]; KIT exon 11 and 17 only, exon 11 and 18 only, any exons 11 and 17, any exon 11 and exon 17 or 18): favor ripretinib treatment | ORR [2, 4]: 44.4% | ORR Response Difference (95% CI), ripretinib versus sunitinib [2, 4]: 44.4% (23.0%, 62.7%) | PFS Hazard Ratio (95% CI), ripretinib versus sunitinib [2, 4]: 0.22 (0.11, 0.44) | ORR ([2]; KIT exon 11 and 17 or 18 only (ctDNA), Data cut 1, listed as Ripretinib): 44.4% | OS [2, 5]: Not Estimable | OS Hazard Ratio (95% CI), ripretinib versus sunitinib [2, 5]: 0.34 (0.15, 0.76) | forest plot of OS by KIT exon 11 mutational subgroups from baseline ctDNA ([2]; KIT exon 11 and 17 or KIT exon 11 and 18 mutations): favors ripretinib treatment | median OS [2, 6]: not estimable | median OS [2, 7]: not estimable | forest plot of ORR by KIT exon 11 mutational subgroups from baseline ctDNA ([2]; KIT exon 11 in combination with KIT exon 17 or 18 mutations): favors ripretinib treatment | PFS, ORR and OS versus sunitinib ([2]; KIT exon 11 only primary mutation and exon 17 or 18 secondary mutations only): superior | median OS [2, 8]: not evaluable | median OS [2, 9]: not evaluable | forest plot of OS by KIT mutational status from baseline ctDNA ([2]; KIT exon 17 and 18 mutations): favors ripretinib treatment | median PFS by IRR [2]: 13.8 months | forest plot of PFS by KIT mutational status from baseline ctDNA ([2]; mutations in KIT exons 17 and 18): favor ripretinib treatment | Median Progression-Free Survival (mPFS) ([2]; Data cut 1): 14.2 months | forest plot of ORR by KIT mutational status from baseline ctDNA ([2]; populations with KIT exons 11, 17 or 18): favors ripretinib treatment | OS HR, ripretinib versus sunitinib (Cox model) [2, 10]: 1.33 | PFS HR, ripretinib versus sunitinib (Cox model) [2, 10]: 3.07 | OS HR, ripretinib versus sunitinib (Cox model) [2, 11]: 2.09 | PFS HR, ripretinib versus sunitinib (Cox model) [2, 11]: 0.96 | OS HR, ripretinib versus sunitinib (Cox model) [2, 12]: 1.91 | PFS HR, ripretinib versus sunitinib (Cox model) [2, 12]: 3.27 | OS HR, ripretinib versus sunitinib (Cox model) [2, 13]: 0.34 | PFS HR, ripretinib versus sunitinib (Cox model) [2, 13]: 0.21 | OS HR, ripretinib versus sunitinib (Cox model) [2, 14]: 1.55 | PFS HR, ripretinib versus sunitinib (Cox model) [2, 14]: 2.54 | OS HR, ripretinib versus sunitinib (Cox model) [2, 15]: 0.63 | PFS HR, ripretinib versus sunitinib (Cox model) [2, 15]: 0.97 | OS HR, ripretinib versus sunitinib (Cox model) [2, 16]: 1.32 | PFS HR, ripretinib versus sunitinib (Cox model) [2, 16]: 2.88 | OS HR, ripretinib versus sunitinib (Cox model) [2, 17]: 2.15 | PFS HR, ripretinib versus sunitinib (Cox model) [2, 17]: 0.98 | OS HR, ripretinib versus sunitinib (Cox model) [2, 18]: 1.88 | PFS HR, ripretinib versus sunitinib (Cox model) [2, 18]: 3.41 | OS HR, ripretinib versus sunitinib (Cox model) [2, 19]: 0.32 | PFS HR, ripretinib versus sunitinib (Cox model) [2, 19]: 0.22 | OS HR, ripretinib versus sunitinib (Cox model) [2, 20]: 1.64 | PFS HR, ripretinib versus sunitinib (Cox model) [2, 20]: 2.53 | OS HR, ripretinib versus sunitinib (Cox model) [2, 21]: 0.78 | PFS HR, ripretinib versus sunitinib (Cox model) [2, 21]: 1.02 | median PFS (independent radiologic review using mRECIST) [3]: not reached

CCN(CC)CCNC(=O)c1c(C)[nH]c(/C=C2\C(=O)Nc3ccc(F)cc32)c1C [sunitinib, reference compound]
forest plot of ORR by KIT mutational status from baseline ctDNA ([2]; KIT exon 9 mutations): favors sunitinib treatment | forest plot of OS by KIT exon 11 mutational subgroups from baseline ctDNA ([2]; KIT exon 11 and 13 or KIT exon 11 and 14 mutations): favors sunitinib treatment | ORR [2, 4]: 0% | ORR ([2]; KIT exon 11 and 17 or 18 only (ctDNA), Data cut 1, listed as Sunitinib): 0% | OS [2, 5]: 17.5 months | median OS [2, 6]: 17.5 months | median OS [2, 7]: 16.9 months | forest plot of ORR by KIT exon 11 mutational subgroups from baseline ctDNA ([2]; KIT exon 11 in combination with KIT exon 13 only): favors sunitinib treatment | forest plot of OS by KIT mutational status from baseline ctDNA ([2]; KIT exon 13 and 14 mutations): favors sunitinib treatment | median OS [2, 8]: 17.5 months | median OS [2, 9]: 17.0 months | median PFS by IRR [2]: 2.8 months | forest plot of PFS by KIT exon 11 mutational subgroups from baseline ctDNA ([2]; exon 11 mutations in combination with exon 13 or exon 14 mutations): favor sunitinib | forest plot of PFS by KIT mutational status from baseline ctDNA ([2]; mutations in KIT exons 9, 13, and 14): favor sunitinib | Median Progression-Free Survival (mPFS) ([2]; Data cut 1): 1.5 months | median PFS (independent radiologic review using mRECIST) [3]: 6.7 months
